For series [1] the following is noted: cited from earlier work; for blood/brain ratio: 10 mg/kg I.P., 2019; for in vivo toxicity in PK study: dosed I.P. at 10 mg/kg, ref Tear et al., 2020.
For series [2], the system named is Acanthamoeba castellanii T4 isolate (ATCC 50370) trophozoites. Briefly: CellTiter-Glo 2.0 trophocidal assay, A. castellanii. In kind it is cell-based. Particulars: Acanthamoeba castellanii, ATCC50370, 72 h, read-out: Acanthamoeba castellanii EC50 ± SD. The source says:
This isolate was purchased from American Type Culture Collection (ATCC). […] For sub-culturing, cells were mechanically harvested to detach the cells from the culture flasks.
Background: ATP-based viability assays read luminescence as a measure of living cells.

The subject of series [3] is Balamuthia mandrillaris (CDC:V039; ATCC 50209) trophozoites. Briefly: CellTiter-Glo 2.0 trophocidal assay, B. mandrillaris. It is filed as cell-based. Particulars: Balamuthia mandrillaris, ATCC50209, 72 h, read-out: Balamuthia mandrillaris EC50 ± SD. The source says:
For sub-culturing, 0.25% Trypsin–EDTA (Gibco) cell detachment reagent was used to detach the cells from the culture flasks.

Series [4] in a line: Human fetal lung fibroblast (MRC5) cell cytotoxicity assay (resazurin). The following applies: human, MRC5 cells (human fetal lung fibroblasts). The protocol:
(§1) Intermediate plates were made as described, adding 95 μL of DMEM complete media to 5 μL of compound per well setting a 5% DMSO amount. Log-phase MRC5 cells were removed from a T-75 TC flask using TrypLE® Express (Thermo®) and dispersed by gentle pipetting. Cell density was adjusted to working concentration in prewarmed DMEM medium: 25,000 cells in 90 μL of culture were plated in 96-well transparent Nunclon plates and allowed to settle for 24 h at 37°C and 5% CO2. […] Plates were incubated for 48 h at 37°C and 5% CO2. At 4 h prior to fluorescence measurement, 20 μL of 500 μM resazurin solution was added.
(§2) A four-parameter equation was used to fit the dose–response curves and determination of EC50 by SigmaPlot ® 13.0 software. Assays were performed in duplicate at least twice for positive compounds, to achieve a minimal […] per dose response.
In general terms: The colour change of resazurin is a common sign of viable cells or microbes.

A further series deals with MRC5 cells. The description is as above. Particulars: Table S2; in µM. The protocol:
as §1, §2

Series [5] concerns Naegleria fowleri (ATCC 30215) trophozoites. In words: microbe, parasite or virus in culture. Particulars: Naegleria fowleri, read-out: Naegleria fowleri EC50 ± SD, logarithmic trophozoites, 72 h, n = 3 (converted). Put shortly: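 Logarithmic-phase axenic trophozoites in Nelson's complete medium with 10% FBS, exposed to compound 72 h at 34°C, 5% CO2. Viability read as ATP luminescence (CellTiter-Glo 2.0); values from at least three biological replicates with SD.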

Series [6] can be described thus: Rat skeletal muscle cell line (L6) cytotoxicity assay (resazurin). Particulars: rat, L6 cells (rat skeletal muscle cell line). On the procedure:
(§3) One hundred microliters (100 μL) per well of culture medium containing the compounds and controls were added to L6 cells previously cultured (4 × 10^3 L6 cells per well). After 72 h at 37°C the medium was exchanged, and the viable cell number was determined by resazurin (Sigma–Aldrich) reduction. 20 μl of resazurin (1.1 mg/ml) was added to each well and incubated in the dark for 2 h at 37°C.

A further series deals with L6 cells. The description is as above. Particulars: Table S2; in µM. On the procedure:
as §3

In another series the test system is THP-1. Briefly: Cytotoxicity assay in THP-1 (MTT). The following applies: Table S2, 72 h, maximal concentration 50 μM. It is filed as cell-based. On the procedure:
Cytotoxicity assay in TH P-1. Cellular toxicity of all compounds was determined using the colorimetric MTT-based assay after incubation at 37 °C for 72 h in the presence of increasing concentrations of compounds (final maximal concentration was 50 μM in 0.5% DMSO per well) [ 1] . The results are expressed […]
cells. Assays were performed in duplicate at least twice to achieve a minimal n=3 per dose response. […]
Cytotoxicity assay in THP-1. Cellular toxicity of all compounds was determined using the colorimetric MTT-based assay after incubation at 37 °C for 72 h in the presence of increasing concentrations of compounds (final maximal concentration was 50 μM in 0.5% DMSO per well). […] Assays were performed in duplicate at least twice to achieve a minimal n=3 per dose response.

Setting [7] is: logarithmic trophozoites, 72 h, n = 3.

Each structure is given as a SMILES string. Entries after “also recorded” stand apart in the source; their conditions may differ. Like-named read-outs stand apart in the source and are kept apart here.

What is called EC50 is the concentration that produces a half-maximal response. As to `N#Cc1cccc(-c2c[nH]c3ncc(-c4cnn(C5CCNCC5)c4)cc23)c1` [Compound 4c], the “brain exposure in PK” value in series [1] (ref Klug et al., 2021) is “negligible brain exposure”. For the same molecule, in [2] (setting [7]), the EC50 is > 20 µM.
One may read the CC50 as the concentration at which the toxic effect on the cells reaches its halfway point. High values mean better tolerance by the cells, low ones harm at low concentration. As for `Cn1nc2c3c(cc(-c4ccnc(N)n4)cc31)Oc1ccccc1N2` [Compound 1e], the EC50 in series [3] (setting [7]) was 14 ± 0.29 µM; in series [5] (ATCC30215, 72 h), > 20 µM; in [2] (setting [7]), > 20 µM. The CC50 at 48 h in series [4] was > 50 µM. The “MRC5 TC50 ± Standard Deviation” value in the series with MRC5 cells was > 50. Also, the CC50 at 72 h in [6] was > 50 µM. Besides, the “L6 TC50 ± Standard Deviation” value with L6 cells is > 50. Moreover, the blood/brain ratio in series [1] (0.5 h, ref Klug et al.) is reported as 2.4; in series [1] (4 h, ref Klug et al.), 2.1. Moreover, the “THP-1 TC50 ± Standard Deviation” value in the series on THP-1 is > 50.
On to `Cc1ccc(Nc2nccc(-c3cnn4ncccc34)n2)cn1` [Compound 2d], for which the EC50 in series [3] is 1.6 ± 0.1 µM; in series [5] (72 h) it was 0.43 ± 0.13 µM; in [2], 0.92 ± 0.3 µM. The CC50 at 48 h in [4] was > 50 µM. Further, the “in vivo toxicity in PK study” value in series [1] is “acute toxicity was seen”.
In the case of `c1cncc(Nc2nccc(-c3cnn4ncccc34)n2)c1` [Compound 2b], the figures for the half-maximal effective concentration (EC50) in series [3], in series [5] (72 h) and in series [2] were 5 ± 0.1 µM, 0.3 ± 0.21 µM and 1.5 ± 0.12 µM, respectively. In addition, the CC50 at 48 h in series [4] was > 50 µM. In addition, the “in vivo toxicity in PK study” value in series [1] (10 mg/kg) was “in vivo toxicity was observed; also recorded: acute toxicity was seen”.

Source of the values: PMC10206040, “Identification of novel anti-amoebic pharmacophores from kinase inhibitor chemotypes” (Frontiers in Microbiology, 2023).
